Data taken from patent US12358885B2, “Substituted n-propylamine fused heterocyclic mescaline derivatives” (Enveric Biosciences Canada Inc., priority 2022, dated 2025).
Read-outs that look alike come from different tables or passages of the source.

What was measured:
5-HT1A receptor [1] = target: T1, 5-HT1A receptor (Homo sapiens, UniProt P08908); assay: 5-HT1A receptor radioligand competition assay (SPA, 8-hydroxy-DPAT [3H]); format: binding; details: 0.5 nM hot 8-hydroxy-DPAT, membranes containing 5-HT1A
T1 construct: purchased Perkin Elmer 6110501400UA
T1 sequence (P08908 1-422): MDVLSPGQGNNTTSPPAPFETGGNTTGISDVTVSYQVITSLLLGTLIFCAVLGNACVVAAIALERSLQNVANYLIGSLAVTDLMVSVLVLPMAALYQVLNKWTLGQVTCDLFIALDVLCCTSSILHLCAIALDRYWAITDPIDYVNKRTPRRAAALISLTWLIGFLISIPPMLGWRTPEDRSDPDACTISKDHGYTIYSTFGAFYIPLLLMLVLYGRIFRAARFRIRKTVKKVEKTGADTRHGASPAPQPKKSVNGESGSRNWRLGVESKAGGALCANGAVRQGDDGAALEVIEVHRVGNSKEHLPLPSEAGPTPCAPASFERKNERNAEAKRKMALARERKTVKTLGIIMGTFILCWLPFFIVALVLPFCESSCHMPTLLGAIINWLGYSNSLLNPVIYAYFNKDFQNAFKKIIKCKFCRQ

MT1 receptor = target: T2, MT1 receptor (Homo sapiens, UniProt P48039); assay: Eurofins Cerep competition binding assay at MT1 receptor; details: for inhibition at 10 µM: read-out: MT1, percent of control-specific binding
T2 construct: host or cells: CHO cells (membrane preparation)
T2 sequence (P48039 whole entry): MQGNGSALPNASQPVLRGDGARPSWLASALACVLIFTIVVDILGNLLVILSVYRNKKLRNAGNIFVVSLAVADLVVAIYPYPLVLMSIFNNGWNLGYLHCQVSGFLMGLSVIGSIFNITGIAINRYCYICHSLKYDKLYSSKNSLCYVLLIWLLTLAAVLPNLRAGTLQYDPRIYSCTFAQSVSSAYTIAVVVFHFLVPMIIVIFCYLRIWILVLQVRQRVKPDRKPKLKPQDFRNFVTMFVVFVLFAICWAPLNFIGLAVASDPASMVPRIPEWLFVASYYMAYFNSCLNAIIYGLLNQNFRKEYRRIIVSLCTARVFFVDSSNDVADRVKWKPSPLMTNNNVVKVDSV

5-HT1A receptor [2] = target: T1, 5-HT1A receptor; assay: Functional 5-HT1A receptor cAMP assay in CHO-K1/5-HT1A/Gα15 cells; format: cell-based
5-HT2C receptor = target: T3, 5-HT2C receptor (Homo sapiens, UniProt P28335); assay: Eurofins Cerep competition binding assay at 5-HT2C receptor; details: 10 μM test ligand, [125I](±)DOI, recombinant receptor in HEK-293 cells; for inhibition at 10 µM: read-out: HT2C, percent of control-specific binding
T3 construct: host or cells: HEK-293 cells (membrane preparation)
T3 sequence (P28335 33-458): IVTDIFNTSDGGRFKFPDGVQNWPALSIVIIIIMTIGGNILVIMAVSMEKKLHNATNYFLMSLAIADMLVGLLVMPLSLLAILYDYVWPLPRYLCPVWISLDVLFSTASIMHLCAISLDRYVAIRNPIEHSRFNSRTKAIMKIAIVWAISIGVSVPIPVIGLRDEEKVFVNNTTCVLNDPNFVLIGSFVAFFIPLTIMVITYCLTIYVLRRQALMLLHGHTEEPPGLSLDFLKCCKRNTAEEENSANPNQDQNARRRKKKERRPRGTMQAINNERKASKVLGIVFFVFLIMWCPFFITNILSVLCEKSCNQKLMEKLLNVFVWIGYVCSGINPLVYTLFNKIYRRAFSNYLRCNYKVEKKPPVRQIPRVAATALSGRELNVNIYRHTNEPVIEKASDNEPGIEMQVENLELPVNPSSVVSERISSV

[3] = target: T4, norepinephrine transporter (NET) (Homo sapiens, UniProt P23975); assay: Eurofins Cerep competition binding assay at norepinephrine transporter; details: for inhibition at 10 µM: read-out: NET, percent of control-specific binding
T4 construct: host or cells: CHO cells (membrane preparation)
T4 sequence (P23975 whole entry): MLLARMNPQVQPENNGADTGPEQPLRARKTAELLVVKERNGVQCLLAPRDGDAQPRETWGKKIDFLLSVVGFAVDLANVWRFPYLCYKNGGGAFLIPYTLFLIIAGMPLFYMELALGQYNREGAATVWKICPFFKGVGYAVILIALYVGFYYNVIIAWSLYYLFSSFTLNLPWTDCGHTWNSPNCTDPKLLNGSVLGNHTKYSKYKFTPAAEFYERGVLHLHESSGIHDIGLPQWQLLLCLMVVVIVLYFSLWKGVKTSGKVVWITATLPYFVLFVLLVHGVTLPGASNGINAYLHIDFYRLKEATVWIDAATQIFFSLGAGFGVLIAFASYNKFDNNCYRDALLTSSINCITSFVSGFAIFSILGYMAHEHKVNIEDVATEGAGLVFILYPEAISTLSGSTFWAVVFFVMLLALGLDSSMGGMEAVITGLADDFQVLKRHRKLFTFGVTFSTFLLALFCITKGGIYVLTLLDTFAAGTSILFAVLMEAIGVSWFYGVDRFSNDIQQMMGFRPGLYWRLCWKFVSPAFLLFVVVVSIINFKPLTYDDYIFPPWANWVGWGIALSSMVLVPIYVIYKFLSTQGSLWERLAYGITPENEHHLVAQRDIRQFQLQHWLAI

alpha2A receptor = target: T5, alpha2A receptor (Homo sapiens, UniProt P08913); assay: Eurofins Cerep competition binding assay at alpha2A receptor; details: 10 μM test ligand; [3H]RX 821002; recombinant receptor in CHO cells
T5 construct: host or cells: CHO cells (membrane preparation)
T5 sequence (P08913 1-465): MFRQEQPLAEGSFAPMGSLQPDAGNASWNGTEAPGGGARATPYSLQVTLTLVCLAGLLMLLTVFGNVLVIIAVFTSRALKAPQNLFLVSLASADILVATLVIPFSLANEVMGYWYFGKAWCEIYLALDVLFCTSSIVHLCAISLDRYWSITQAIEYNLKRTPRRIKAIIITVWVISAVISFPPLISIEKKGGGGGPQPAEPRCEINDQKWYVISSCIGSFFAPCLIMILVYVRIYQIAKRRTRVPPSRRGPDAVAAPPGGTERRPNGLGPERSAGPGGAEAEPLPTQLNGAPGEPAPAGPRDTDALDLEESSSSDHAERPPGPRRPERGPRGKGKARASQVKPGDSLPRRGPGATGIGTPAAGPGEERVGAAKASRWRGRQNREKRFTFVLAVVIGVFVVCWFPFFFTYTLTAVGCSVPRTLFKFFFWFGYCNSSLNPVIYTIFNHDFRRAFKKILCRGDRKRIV

[4] = target: T6, serotonin transporter (SERT) (Homo sapiens, UniProt P31645); assay: biochemical; format: binding; details: for inhibition at 10 µM: read-out: SERT, percent of control-specific binding
T6 construct: host or cells: CHO cells (membrane preparation)
T6 sequence (P31645 whole entry): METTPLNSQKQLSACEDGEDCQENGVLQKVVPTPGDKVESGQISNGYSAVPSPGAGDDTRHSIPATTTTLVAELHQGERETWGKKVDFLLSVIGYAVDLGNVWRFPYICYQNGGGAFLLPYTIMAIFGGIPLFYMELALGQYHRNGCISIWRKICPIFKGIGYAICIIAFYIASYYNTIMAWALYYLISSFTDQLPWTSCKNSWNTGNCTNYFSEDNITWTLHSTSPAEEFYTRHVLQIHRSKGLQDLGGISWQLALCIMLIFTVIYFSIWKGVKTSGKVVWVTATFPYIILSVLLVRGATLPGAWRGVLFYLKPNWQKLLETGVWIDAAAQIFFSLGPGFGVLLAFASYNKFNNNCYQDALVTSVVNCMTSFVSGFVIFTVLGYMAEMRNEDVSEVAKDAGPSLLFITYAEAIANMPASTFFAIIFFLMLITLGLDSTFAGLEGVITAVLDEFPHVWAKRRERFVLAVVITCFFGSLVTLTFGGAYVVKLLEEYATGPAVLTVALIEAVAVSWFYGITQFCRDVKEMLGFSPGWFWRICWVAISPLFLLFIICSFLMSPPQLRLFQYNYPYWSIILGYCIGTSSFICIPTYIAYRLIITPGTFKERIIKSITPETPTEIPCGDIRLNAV

[5] = target: T7, dopamine transporter (DAT) (Homo sapiens, UniProt Q01959); assay: Eurofins Cerep competition binding assay at dopamine transporter; details: for inhibition at 10 µM: read-out: DAT, percent of control-specific binding
T7 construct: host or cells: CHO cells (membrane preparation)
T7 sequence (Q01959 whole entry): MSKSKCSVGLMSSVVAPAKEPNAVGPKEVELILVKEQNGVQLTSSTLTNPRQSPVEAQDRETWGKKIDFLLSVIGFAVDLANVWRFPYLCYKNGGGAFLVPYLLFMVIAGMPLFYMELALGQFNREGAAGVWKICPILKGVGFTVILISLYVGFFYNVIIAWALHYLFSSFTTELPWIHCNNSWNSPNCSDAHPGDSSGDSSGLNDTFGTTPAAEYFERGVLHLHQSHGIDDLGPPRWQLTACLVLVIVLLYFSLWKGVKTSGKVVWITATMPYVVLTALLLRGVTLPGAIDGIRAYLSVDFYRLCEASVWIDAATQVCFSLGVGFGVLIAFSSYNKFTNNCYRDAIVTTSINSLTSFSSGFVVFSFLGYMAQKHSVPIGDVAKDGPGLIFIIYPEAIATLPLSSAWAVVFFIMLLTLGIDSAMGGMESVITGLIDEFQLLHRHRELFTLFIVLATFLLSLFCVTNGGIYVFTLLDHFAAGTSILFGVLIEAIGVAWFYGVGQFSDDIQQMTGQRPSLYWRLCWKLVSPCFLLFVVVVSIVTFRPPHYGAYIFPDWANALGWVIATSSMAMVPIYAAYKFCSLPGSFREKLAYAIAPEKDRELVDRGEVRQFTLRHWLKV

5-HT2A receptor [6] = target: T8, 5-HT2A receptor (Homo sapiens, UniProt P28223); assay: biochemical; format: binding
T8 construct: host or cells: HEK-293 cells (membrane preparation)
T8 sequence (P28223 whole entry): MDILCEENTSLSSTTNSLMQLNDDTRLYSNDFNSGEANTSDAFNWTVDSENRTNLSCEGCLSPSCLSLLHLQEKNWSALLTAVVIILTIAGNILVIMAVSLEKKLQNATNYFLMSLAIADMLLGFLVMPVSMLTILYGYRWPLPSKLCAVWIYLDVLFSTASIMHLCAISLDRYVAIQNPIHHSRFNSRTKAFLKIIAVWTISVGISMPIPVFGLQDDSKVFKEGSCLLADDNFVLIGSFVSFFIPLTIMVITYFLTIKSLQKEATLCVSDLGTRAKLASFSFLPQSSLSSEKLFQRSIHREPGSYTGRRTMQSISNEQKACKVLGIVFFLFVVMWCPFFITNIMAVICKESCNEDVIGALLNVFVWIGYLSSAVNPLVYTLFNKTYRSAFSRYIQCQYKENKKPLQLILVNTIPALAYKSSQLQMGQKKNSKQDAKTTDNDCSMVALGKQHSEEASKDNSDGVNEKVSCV

5-HT1A receptor [7] = target: T1, 5-HT1A receptor; assay: Eurofins Cerep competition binding assay at 5-HT1A receptor; details: 10 μM test ligand, [3H]8-OH-DPAT, recombinant receptor in HEK-293 cells; for inhibition at 10 µM: read-out: HT1A, percent of control-specific binding
D3 receptor = target: T9, D3 receptor (Homo sapiens, UniProt P35462); assay: Eurofins Cerep competition binding assay at D3 receptor; details: 10 μM test ligand, [3H]methylspiperone, recombinant receptor in CHO cells; for inhibition at 10 µM: read-out: D3, percent of control-specific binding
T9 construct: host or cells: CHO cells (membrane preparation)
T9 sequence (P35462 whole entry): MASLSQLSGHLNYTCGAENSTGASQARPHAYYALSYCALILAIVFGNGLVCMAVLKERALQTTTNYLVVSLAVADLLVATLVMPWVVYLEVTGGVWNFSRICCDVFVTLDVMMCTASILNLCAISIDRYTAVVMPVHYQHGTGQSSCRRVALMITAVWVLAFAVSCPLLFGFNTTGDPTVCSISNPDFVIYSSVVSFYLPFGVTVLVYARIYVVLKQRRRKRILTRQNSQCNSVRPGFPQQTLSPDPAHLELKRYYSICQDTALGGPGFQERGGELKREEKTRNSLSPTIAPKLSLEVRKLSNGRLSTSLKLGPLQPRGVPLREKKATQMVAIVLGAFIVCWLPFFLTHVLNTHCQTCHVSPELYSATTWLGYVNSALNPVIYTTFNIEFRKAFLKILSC

5-HT2A receptor [8] = target: T8, 5-HT2A receptor; assay: biochemical; format: binding; details: for inhibition at 10 µM: 10 μM test molecule, [125I](±)DOI, recombinant receptor in HEK-293 cells, read-out: HT2A, percent of control-specific binding
5-HT7 receptor = target: T10, 5-HT7 receptor (Homo sapiens, UniProt P34969); assay: Eurofins Cerep competition binding assay at 5-HT7 receptor; details: 10 μM test ligand, [3H]LSD, recombinant receptor in HEK-293 cells; for inhibition at 10 µM: read-out: HT7, percent of control-specific binding
T10 construct: host or cells: HEK-293 cells (membrane preparation)
T10 sequence (P34969 whole entry): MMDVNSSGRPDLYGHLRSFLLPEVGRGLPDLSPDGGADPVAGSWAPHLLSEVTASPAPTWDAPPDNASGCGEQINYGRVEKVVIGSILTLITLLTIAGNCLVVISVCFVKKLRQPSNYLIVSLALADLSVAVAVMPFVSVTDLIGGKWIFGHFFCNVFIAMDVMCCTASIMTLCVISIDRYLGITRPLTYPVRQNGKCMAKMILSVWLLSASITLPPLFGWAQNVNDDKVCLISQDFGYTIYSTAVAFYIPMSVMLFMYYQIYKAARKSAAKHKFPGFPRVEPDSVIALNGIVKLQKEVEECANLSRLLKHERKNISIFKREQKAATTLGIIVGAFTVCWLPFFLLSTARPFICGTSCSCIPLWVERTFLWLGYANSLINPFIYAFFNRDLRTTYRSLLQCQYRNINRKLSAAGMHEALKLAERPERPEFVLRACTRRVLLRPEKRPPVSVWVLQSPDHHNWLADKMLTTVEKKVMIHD

5-HT2B receptor = target: T11, 5-HT2B receptor (Homo sapiens, UniProt P41595); assay: Eurofins Cerep competition binding assay at 5-HT2B receptor; details: 10 μM test ligand, [3H]mesulergine, recombinant receptor in CHO cells; for inhibition at 10 µM: read-out: HT2B, percent of control-specific binding
T11 construct: host or cells: CHO cells (membrane preparation)
T11 sequence (P41595 whole entry): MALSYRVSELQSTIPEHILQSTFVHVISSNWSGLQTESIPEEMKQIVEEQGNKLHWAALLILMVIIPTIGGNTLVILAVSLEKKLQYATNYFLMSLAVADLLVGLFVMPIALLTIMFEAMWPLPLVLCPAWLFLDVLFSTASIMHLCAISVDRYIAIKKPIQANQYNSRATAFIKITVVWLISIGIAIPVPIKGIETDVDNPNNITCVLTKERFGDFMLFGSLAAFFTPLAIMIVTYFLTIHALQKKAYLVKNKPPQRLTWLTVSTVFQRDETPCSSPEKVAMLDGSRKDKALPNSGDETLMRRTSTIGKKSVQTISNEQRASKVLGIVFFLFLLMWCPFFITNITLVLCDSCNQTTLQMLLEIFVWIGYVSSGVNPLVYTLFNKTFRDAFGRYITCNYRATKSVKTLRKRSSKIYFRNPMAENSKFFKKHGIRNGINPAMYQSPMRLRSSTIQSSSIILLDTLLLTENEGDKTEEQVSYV

[9] = 1 nM [3H]ketanserin, membranes containing 5-HT2A, SPA

C/C(=C\c1ccc2c(c1)OCO2)CN1CCCC1 [B(II)]
Ki (5-HT1A receptor [1]): 824 µM
inhibition at 10 µM (MT1 receptor): 20%
EC50 (5-HT1A receptor [2]): 40.1 µM
inhibition at 10 µM (5-HT2C receptor): 45%
inhibition at 10 µM [3]: 43%
α-2A, percent of control-specific binding (alpha2A receptor): 75%
inhibition at 10 µM [4]: 95%
inhibition at 10 µM [5]: 69%
Ki (5-HT2A receptor [6]; [9]): 7 µM
inhibition at 10 µM (5-HT1A receptor [7]): 79%
inhibition at 10 µM (D3 receptor): 55%
inhibition at 10 µM (5-HT2A receptor [8]): 53%
inhibition at 10 µM (5-HT7 receptor): 68%
inhibition at 10 µM (5-HT2B receptor): 87%

CCN(CC)C/C=C/c1ccc2c(c1)OCO2 [D(I)]
inhibition at 10 µM (MT1 receptor): 10%
EC50 (5-HT1A receptor [2]): > 1000 µM
inhibition at 10 µM (5-HT2C receptor): 33%
inhibition at 10 µM [3]: 17%
α-2A, percent of control-specific binding (alpha2A receptor): 34%
inhibition at 10 µM [4]: 70%
inhibition at 10 µM [5]: 39%
Ki (5-HT2A receptor [6]; [9]): 21 µM
inhibition at 10 µM (5-HT1A receptor [7]): 49%
inhibition at 10 µM (D3 receptor): 21%
inhibition at 10 µM (5-HT2A receptor [8]): 32%
inhibition at 10 µM (5-HT7 receptor): 18%
inhibition at 10 µM (5-HT2B receptor): 58%

O=C(CCc1ccc2c(c1)OCO2)N1CCCC1 [F(III)]
Ki (5-HT1A receptor [1]): > 1000 µM
inhibition at 10 µM (MT1 receptor): 12%
inhibition at 10 µM (5-HT2C receptor): 5%
inhibition at 10 µM [3]: 0%
α-2A, percent of control-specific binding (alpha2A receptor): 5%
inhibition at 10 µM [4]: 0%
inhibition at 10 µM [5]: 0%
Ki (5-HT2A receptor [6]; [9]): 152 µM
inhibition at 10 µM (5-HT1A receptor [7]): 0%
inhibition at 10 µM (D3 receptor): 0%
inhibition at 10 µM (5-HT2A receptor [8]): 0%
inhibition at 10 µM (5-HT7 receptor): 2%
inhibition at 10 µM (5-HT2B receptor): 13%

CNC(C)Cc1ccc2c(c1)OCO2 (stereo not drawn) [MDMA, reference compound]
Ki (5-HT1A receptor [1]): 11 µM
MT1, percent of control-specific binding (MT1 receptor; 10 μM test ligand, [125I]2-iodomelatonin, recombinant receptor in CHO cells): 1%
EC50 (5-HT1A receptor [2]; reduction of cAMP in cells stimulated with 4 μM forskolin, CHO-K1/5-HT1A/Gα15, read-out: 5-HT1A, EC50): > 1000 µM
HT2C, percent of control-specific binding (5-HT2C receptor): 96%
NET, percent of control-specific binding ([3]; 10 μM test ligand, [3H]nisoxetine, recombinant transporter in CHO cells): 3%
α-2A, percent of control-specific binding (alpha2A receptor): 27%
SERT, percent of control-specific binding ([4]; 10 µM): 46%
DAT, percent of control-specific binding ([5]; 10 μM test ligand, [3H]BTCP, recombinant transporter in CHO cells): 28%
Ki (5-HT2A receptor [6]): 39.9 µM
HT1A, percent of control-specific binding (5-HT1A receptor [7]): 68%
D3, percent of control-specific binding (D3 receptor): 18%
HT2A, percent of control-specific binding (5-HT2A receptor [8]; 10 µM): 74%
HT7, percent of control-specific binding (5-HT7 receptor): 58%
HT2B, percent of control-specific binding (5-HT2B receptor): 85%
